Columns and labels:
Format in all cases: in vivo
[1] = test system: barnyardgrass (Echinochloa crus-galli); assay: Test A preemergence, barnyardgrass; details: 0 to 100 scale (0 no effect, 100 complete control)
Outline: (§1)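 Each compound, in a non-phytotoxic solvent mixture with surfactant, is applied to soil at planting and, concurrently, to young one- to two-leaf plants. After approximately ten greenhouse days, visual response is rated 0 (no effect) to 100 (complete control) against untreated controls.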

[2] = test system: large crabgrass (Digitaria sanguinalis); assay: Test A preemergence, large crabgrass; details: 0 to 100 scale (0 no effect, 100 complete control)
Outline: as §1

[3] = test system: giant foxtail (Setaria faberi); assay: Test A preemergence, giant foxtail; details: 0 to 100 scale (0 no effect, 100 complete control)
Outline: as §1

[4] = test system: morningglory (Ipomoea spp.); assay: Test A preemergence, morningglory; details: 0 to 100 scale (0 no effect, 100 complete control)
Outline: as §1

[5] = test system: pigweed (Amaranthus retroflexus); assay: Test A preemergence, pigweed; details: 0 to 100 scale (0 no effect, 100 complete control)
Outline: as §1

[6] = test system: velvetleaf (Abutilon theophrasti); assay: Test A preemergence, velvetleaf; details: 0 to 100 scale (0 no effect, 100 complete control)
Outline: as §1

[7] = test system: wheat (Triticum aestivum); assay: Test A preemergence, wheat; details: 0 to 100 scale (0 no effect, 100 complete control)
Outline: as §1

corn (Zea mays) [8] = assay: Test A preemergence, corn; details: 0 to 100 scale (0 no effect, 100 complete control)
Outline: as §1

[9] = test system: barnyardgrass (Echinochloa crus-galli); assay: Test A postemergence, barnyardgrass; details: 0 to 100 scale (0 no effect, 100 complete control)
Outline: as §1

[10] = test system: large crabgrass (Digitaria sanguinalis); assay: Test A postemergence, large crabgrass; details: 0 to 100 scale (0 no effect, 100 complete control)
Outline: as §1

[11] = test system: giant foxtail (Setaria faberi); assay: Test A postemergence, giant foxtail; details: 0 to 100 scale (0 no effect, 100 complete control)
Outline: as §1

[12] = test system: morningglory (Ipomoea spp.); assay: Test A postemergence, morningglory; details: 0 to 100 scale (0 no effect, 100 complete control)
Outline: as §1

[13] = test system: pigweed (Amaranthus retroflexus); assay: Test A postemergence, pigweed; details: 0 to 100 scale (0 no effect, 100 complete control)
Outline: as §1

[14] = test system: velvetleaf (Abutilon theophrasti); assay: Test A postemergence, velvetleaf; details: 0 to 100 scale (0 no effect, 100 complete control)
Outline: as §1

[15] = test system: wheat (Triticum aestivum); assay: Test A postemergence, wheat; details: 0 to 100 scale (0 no effect, 100 complete control)
Outline: as §1

corn (Zea mays) [16] = assay: Test A postemergence, corn; details: 0 to 100 scale (0 no effect, 100 complete control)
Outline: as §1

rice (Oryza sativa) = assay: Test B flooded paddy test, rice; details: Flood, scale 0 to 100
Outline: (§2)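 Rice, umbrella sedge, ducksalad and barnyardgrass at 2-leaf stage; pots flooded to 3 cm, compounds applied into paddy water, depth held throughout. Greenhouse 13 to 15 days, then visual rating vs untreated controls on 0–100 scale (0 no effect, 100 complete control); dash means no test result.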

[17] = test system: umbrella sedge (Cyperus difformis); assay: Test B flooded paddy test, umbrella sedge; details: Flood, scale 0 to 100
Outline: as §2

[18] = test system: ducksalad (Heteranthera limosa); assay: Test B flooded paddy test, ducksalad; details: Flood, scale 0 to 100
Outline: as §2

[19] = test system: barnyardgrass (Echinochloa crus-galli); assay: Test B flooded paddy test, barnyardgrass; details: Flood
Outline: as §2

[20] = 250 g ai/ha, scale 0 to 100 (0 no effect, 100 complete control)

CC1(C)CC([S+]([O-])Cc2c(C(F)(F)F)nc3n(c2=O)CCCCC3)=NO1 (stereo not drawn) [Compound 34]
30: Plant response rating, Morningglory ([12]; 125 g ai/ha)
90: Plant response rating, Foxtail, Giant ([3]; 500 g ai/ha)
0: Plant response rating, Barnyardgrass ([1]; 125 g ai/ha) | Plant response rating, Crabgrass, Large ([2]; 125 g ai/ha) | Plant response rating, Foxtail, Giant ([3]; 125 g ai/ha) | Plant response rating, Morningglory ([4]; 125 g ai/ha) | Plant response rating, Morningglory ([4]; 500 g ai/ha) | Plant response rating, Pigweed ([5]; 125 g ai/ha) | Plant response rating, Pigweed ([5]; 500 g ai/ha) | Plant response rating, Velvetleaf ([6]; 125 g ai/ha) | Plant response rating, Velvetleaf ([6]; 500 g ai/ha) | Plant response rating, Wheat ([7]; 125 g ai/ha) | Plant response rating, Corn (corn (Zea mays) [8]; 125 g ai/ha) | Plant response rating, Corn (corn (Zea mays) [8]; 500 g ai/ha) | Plant response rating, Barnyardgrass ([9]; 125 g ai/ha) | Plant response rating, Crabgrass, Large ([10]; 125 g ai/ha) | Plant response rating, Foxtail, Giant ([11]; 125 g ai/ha) | Plant response rating, Pigweed ([13]; 125 g ai/ha) | Plant response rating, Pigweed ([13]; 500 g ai/ha) | Plant response rating, Velvetleaf ([14]; 125 g ai/ha) | Plant response rating, Velvetleaf ([14]; 500 g ai/ha) | Plant response rating, Wheat ([15]; 125 g ai/ha) | Plant response rating, Corn (corn (Zea mays) [16]; 125 g ai/ha) | Plant response rating, Corn (corn (Zea mays) [16]; 500 g ai/ha) | Plant response rating, Rice (rice (Oryza sativa); 31 g ai/ha) | Plant response rating, Rice (rice (Oryza sativa); 62 g ai/ha) | Plant response rating, Rice (rice (Oryza sativa); 125 g ai/ha) | Plant response rating, Rice (rice (Oryza sativa); 250 g ai/ha) | Plant response rating, Sedge, Umbrella ([17]; 31 g ai/ha) | Plant response rating, Sedge, Umbrella ([17]; 62 g ai/ha) | Plant response rating, Sedge, Umbrella ([17]; 125 g ai/ha) | Plant response rating, Sedge, Umbrella ([17]; 250 g ai/ha) | Plant response rating, Ducksalad ([18]; 31 g ai/ha) | Plant response rating, Ducksalad ([18]; 62 g ai/ha) | Plant response rating, Ducksalad ([18]; 125 g ai/ha) | Plant response rating, Ducksalad ([18]; 250 g ai/ha) | Plant response rating, Barnyardgrass ([19]; 31 g ai/ha, scale 0 to 100) | Plant response rating, Barnyardgrass ([19]; 62 g ai/ha, scale 0 to 100) | Plant response rating, Barnyardgrass ([19]; 125 g ai/ha, scale 0 to 100) | Plant response rating, Barnyardgrass [19, 20]
60: Plant response rating, Foxtail, Giant ([11]; 500 g ai/ha)
20: Plant response rating, Wheat ([15]; 500 g ai/ha)
80: Plant response rating, Crabgrass, Large ([2]; 500 g ai/ha)
40: Plant response rating, Crabgrass, Large ([10]; 500 g ai/ha) | Plant response rating, Morningglory ([12]; 500 g ai/ha)
70: Plant response rating, Barnyardgrass ([1]; 500 g ai/ha)
50: Plant response rating, Wheat ([7]; 500 g ai/ha) | Plant response rating, Barnyardgrass ([9]; 500 g ai/ha)

CC1(C)CC(S(=O)(=O)Cc2c(C(F)(F)C(F)(F)F)nc3n(c2=O)CCCO3)=NO1 [Compound 55]
20: Plant response rating, Wheat ([7]; 500 g ai/ha) | Plant response rating, Morningglory ([12]; 500 g ai/ha)
30: Plant response rating, Velvetleaf ([6]; 500 g ai/ha) | Plant response rating, Crabgrass, Large ([10]; 125 g ai/ha) | Plant response rating, Velvetleaf ([14]; 500 g ai/ha) | Plant response rating, Wheat ([15]; 500 g ai/ha)
0: Plant response rating, Crabgrass, Large ([2]; 125 g ai/ha) | Plant response rating, Morningglory ([4]; 125 g ai/ha) | Plant response rating, Pigweed ([5]; 125 g ai/ha) | Plant response rating, Velvetleaf ([6]; 125 g ai/ha) | Plant response rating, Wheat ([7]; 125 g ai/ha) | Plant response rating, Corn (corn (Zea mays) [8]; 125 g ai/ha) | Plant response rating, Corn (corn (Zea mays) [8]; 500 g ai/ha) | Plant response rating, Pigweed ([13]; 125 g ai/ha) | Plant response rating, Velvetleaf ([14]; 125 g ai/ha) | Plant response rating, Wheat ([15]; 125 g ai/ha) | Plant response rating, Corn (corn (Zea mays) [16]; 125 g ai/ha) | Plant response rating, Corn (corn (Zea mays) [16]; 500 g ai/ha) | Plant response rating, Rice (rice (Oryza sativa); 31 g ai/ha) | Plant response rating, Rice (rice (Oryza sativa); 62 g ai/ha) | Plant response rating, Rice (rice (Oryza sativa); 125 g ai/ha) | Plant response rating, Rice (rice (Oryza sativa); 250 g ai/ha) | Plant response rating, Sedge, Umbrella ([17]; 31 g ai/ha) | Plant response rating, Sedge, Umbrella ([17]; 62 g ai/ha) | Plant response rating, Sedge, Umbrella ([17]; 125 g ai/ha) | Plant response rating, Sedge, Umbrella ([17]; 250 g ai/ha) | Plant response rating, Ducksalad ([18]; 31 g ai/ha) | Plant response rating, Ducksalad ([18]; 62 g ai/ha) | Plant response rating, Ducksalad ([18]; 125 g ai/ha) | Plant response rating, Ducksalad ([18]; 250 g ai/ha) | Plant response rating, Barnyardgrass ([19]; 31 g ai/ha, scale 0 to 100) | Plant response rating, Barnyardgrass ([19]; 62 g ai/ha, scale 0 to 100) | Plant response rating, Barnyardgrass ([19]; 125 g ai/ha, scale 0 to 100) | Plant response rating, Barnyardgrass [19, 20]
10: Plant response rating, Morningglory ([12]; 125 g ai/ha) | Plant response rating, Pigweed ([13]; 500 g ai/ha)
80: Plant response rating, Barnyardgrass ([1]; 500 g ai/ha) | Plant response rating, Foxtail, Giant ([3]; 125 g ai/ha) | Plant response rating, Foxtail, Giant ([11]; 500 g ai/ha)
90: Plant response rating, Crabgrass, Large ([2]; 500 g ai/ha) | Plant response rating, Foxtail, Giant ([3]; 500 g ai/ha) | Plant response rating, Barnyardgrass ([9]; 500 g ai/ha)
50: Plant response rating, Barnyardgrass ([1]; 125 g ai/ha) | Plant response rating, Morningglory ([4]; 500 g ai/ha)
40: Plant response rating, Pigweed ([5]; 500 g ai/ha)
70: Plant response rating, Barnyardgrass ([9]; 125 g ai/ha) | Plant response rating, Crabgrass, Large ([10]; 500 g ai/ha) | Plant response rating, Foxtail, Giant ([11]; 125 g ai/ha)
